Patent US3984411A, “Pyrimidines” (Societe Generale de Recherches et d'Applications …, priority 1975, dated 1976)
Counter-ions that a name gives are not always drawn. Like-named read-outs stand apart in the source and are kept apart here.

Key:
[1] = Toxicity (LD 50) in mice by intravenous and oral application; type: in vivo; conditions: mouse, in vivo, cumulative quantal method
From the text: (§1) The toxicities of the compounds according to the invention have been determined on mice CD 1 (Charles RIVER) by intravenous and oral applications. The LD 50, calculated by the cumulative quantal method of J. J. Reed and H. Muench, Am.

[2] = tested on: mice CD 1 (Charles RIVER); experiment: as above; type: in vivo; conditions: mice CD 1, oral; cumulative quantal method
From the text: as §1

glycemia = experiment: Hypoglycemiant effect in the rat, oral, 4 days treatment; type: in vivo, male rat CD (Charles RIVER); conditions: for hypoglycemiant effects (in words): oral, 4 days
Experimental: The hypoglycemiant properties have been studied on the male rat CD (Charles RIVER) of 200-250 g, of which the glycemia is controlled after 4 days of daily treatment by oral application. The serum glucose is determined by the method of W. S. Hoffman, J. Biol. Chem., 120, 51 (1937). Groups of 10 rats are used and the hypoglycemiant activity is expressed by the percentage variation of the average glycemia of the treated animals compared with that of the controls. The statistical significance of the differences observed is determined by application of the STUDENT test.

cholesterolemia = experiment: Hypocholesterolemiant effect in the rat, oral, 4 days treatment; type: in vivo, rat CD (Charles RIVER); conditions: for hypocholesterolemiant activities (in words): oral, 4 days
Experimental: The hypocholesterolemiant effects of the products according to the invention have been studied on the rat CD (Charles RIVER) by oral application. The animals, divided into groups of 10, are treated daily by gastric probe for 4 consecutive days. Four hours after the last administration, the rats are killed and their blood is collected in order to proceed to the determination of the amount of cholesterol according to the method of J. Levine and B. Zak, Clin. Acta, 10, 381 (1964).
The activity of the substances is evaluated by calculating the percentage variation of the average amount of cholesterol of the animals treated with respect to that of the control animals. Then the statistical significance of the differences observed is determined by application of the STUDENT test.

[3] = mice CD 1, intravenous, read-out: Intense toxicities to mice (LD 50), intravenous
[4] = 50 mg/kg taken orally, all values significant at p = 0.001
[5] = mice CD 1, oral, read-out: Intense toxicities to mice (LD 50), oral
[6] = 100 mg/kg taken orally, significant at p = 0.001, except Example 18 at p = 0.05
[7] = 300 mg/kg taken orally, significant at p = 0.001
[8] = 100 mg/kg taken orally, significant at p = 0.001

Compound | LD50 [1, 3] | Intense toxicities to mice (LD 50), oral [2] | hypocholesterolemiant activities (in words) (cholesterolemia) | LD50 [1, 5] | Variation of the cholesterolemia in % with respect to the controls after 4 days treatment (cholesterolemia; [6]) | Percentage variation of the glycemia compared with the controls after 4 days treament (glycemia; [7]) | hypoglycemiant effects (in words) (glycemia) | other results
COc1c(OC2CCN(C)CC2)nc(N2CCOCC2)nc1OC1CCN(C)CC1 [Example 14, 2-morpholino-4,6-di[(N-methyl-4'-piperidyl)oxy]-5-methoxy-pyrimidine] | 67 mg/kg | atoxic at 900 | – | – | – | – | – | Percentage variation of the glycemia compared with the controls after 4 days treament (glycemia; 200 mg/kg taken orally, significant at p = 0.001): -24%
Cc1c(OC2CCN(C)CC2)nc(N2CCOCC2)nc1OC1CCN(C)CC1 [Example 15, 2-moropholino-4,6-di[(N-methyl-4'-piperidyl)oxy]-5-methyl-pyrimidine] | 81 mg/kg | atoxic at 900 | remarkable hypocholesterolemiant activities | – | – | – | – | Variation of the cholesterolemia in % with respect to the controls after 4 days treatment (cholesterolemia; [4]): -31%; Percentage variation of the glycemia compared with the controls after 4 days treament (glycemia; 50 mg/kg taken orally, significant at p = 0.05): -12%
CCc1c(OC2CCN(C)CC2)nc(N2CCOCC2)nc1OC1CCN(C)CC1 [Example 16, 2-morpholino-4,6-di[(N-methyl-4'-piperidyl)oxy]-5-ethyl-pyrimidine dihydrobromide] | 54 mg/kg | – | remarkable hypocholesterolemiant activities | ~525 mg/kg | -60% | – | – | –
CCCCc1c(OC2CCN(C)CC2)nc(N2CCOCC2)nc1OC1CCN(C)CC1 [Example 17, 2-morpholino-4,6-di[(N-methyl-4'-piperidyl)oxy]-5-n-butyl-pyrimidine dihydrochloride] | – | – | – | ~225 mg/kg | -36% | – | – | –
CN1CCC(Oc2nc(N3CCOCC3)nc(OC3CCN(C)CC3)c2-c2ccc(Cl)cc2)CC1 [Example 18, 2-morpholino-4,6-di[(N-methyl-4'-piperidyl)oxy]-5-p-chlorophenyl-pyrimidine] | 20 mg/kg | – | – | ~600 mg/kg | -14% | -35% | especially large hypoglycemiant effects | Variation of the cholesterolemia in % with respect to the controls after 4 days treatment (cholesterolemia; [7]): -44%; Percentage variation of the glycemia compared with the controls after 4 days treament (glycemia; [8]): -29%
CCOc1c(OC2CCN(C)CC2)nc(N2CCOCC2)nc1OC1CCN(C)CC1 [Example 19, 2-morpholino-4,6-di[(N-methyl-4'-piperidyl)oxy]-5-ethoxy-pyrimidine dihydrochloride] | 70 mg/kg | – | – | ~600 mg/kg | – | -43% | especially large hypoglycemiant effects | –
CN1CCC(Oc2nc(N3CCOCC3)nc(OC3CCN(C)CC3)c2Oc2ccc(Cl)cc2)CC1 [Example 20, 2-morpholino-4,6-di[(N-methyl-4'-piperidyl)oxy]-5-p-chlorophenoxy-pyrimidine] | – | – | remarkable hypocholesterolemiant activities | > 900 mg/kg | -47% | -27% | especially large hypoglycemiant effects | –
CN1CCC(Oc2nc(N3CCOCC3)nc(OC3CCN(C)CC3)c2Cc2ccccc2)CC1 [Example 21, 2-morpholino-4,6-di[(N-methyl-4'-piperidyl)oxy]-5-benzyl-pyrimidine] | 40 mg/kg | – | – | ~800 mg/kg | -39% | – | especially large hypoglycemiant effects | Percentage variation of the glycemia compared with the controls after 4 days treament (glycemia; [8]): -27%
CN1CCC(Oc2nc(N3CCOCC3)nc(OC3CCN(C)CC3)c2Cl)CC1 [Example 22, 2-morpholino-4,6-di[(N-methyl-4'-piperidyl)oxy]-5-chloro-pyrimidine] | – | atoxic at 900 | remarkable hypocholesterolemiant activities | – | -45% | – | – | Variation of the cholesterolemia in % with respect to the controls after 4 days treatment (cholesterolemia; [4]): -19%
CN1CCC(Oc2cc(OC3CCN(C)CC3)nc(N3CCOCC3)n2)CC1 [Example 23, 2-morpholino-4,6-di[(N-methyl-4'-piperidyl)oxy]-pyrimidine] | – | atoxic at 900 | – | – | – | – | – | Percentage variation of the glycemia compared with the controls after 4 days treament (glycemia; 400 mg/kg taken orally, significant at p = 0.001): -20%
